Experimental data as given in patent US10016382B2, “Method for decreasing skeletal muscle damage and/or oxidative stress in mammals” (LONZA INC., priority 2014, dated 2018).
Where “and” joins values, the source holds several entries; their conditions need not be identical. Equal values may be shown once.

How the values were obtained:
Assay type in all cases: in vivo, dog
[1] = system: Labrador Retrievers; assay: Activity by Actical monitors, long (endurance) runs, Example 1; conditions: Ex.1, 250 mg/d; for Activity long runs, Least Sq Mean: average of 13 weekly long runs, mixed model
Description: Each test dog wore an Actical activity monitor from Philips Respironics on a collar for the short higher intensity runs and also wore an Actical activity monitor for the weekly longer endurance runs. The activity data was downloaded into spread sheets along with each dogs identity. Twenty four hours after each long run during the 13 wk running program each of the dogs were scored by kennel staff for soreness or any type of lameness The exercise program was decreased in a tapering program during wk 11 and 12 to allow the dogs to rest for the final long run completed on wk 13. Pre-run serum samples from each test dog was taken 24 hr before the last endurance run. The heart rate and basal body temperature was determined for each test dog prior to the last long endurance run. The distance and number of sprints affiliated with the short runs (marks) were decreased during wk 11 back to 1200 total yd/d or 2400 yd/wk and decreased again on wk 12 to 600 yd/d or a total of 1200 yd/wk to provide rest for the final long run on wk 13. The weekly endurance run was 5 miles in the beginning, increased by ½ mile per wk and was increased to a distance of 10 miles on the 10th week. The dogs ran only a 5 mile endurance run on wk 11 and only a 2 mile endurance run on wk 12 in order to rest for the final long run during the 13th wk. The endurance (long) runs for the 40 dogs were carried out on the 5th and 6th day of each wk for both treatments. Half of the dogs were run on Friday (5th d) and half of the dogs were run on the Saturday (6th d). The exercise regimen was finalized during the 13th week of the study by resting the dogs for 3 days and then running half of the dogs from each group for a 15 mile endurance run on Monday and the remaining 20 dogs were run the 15 mile endurance run on Tuesday. The longer endurance type runs were slightly slower to enhance fat oxidation and represent an exercise intensity equivalent to 50%-65% VO2 max. Performance and Recovery Time: An Actical monitor (Philips Respironics) was worn around the neck of each dog on a collar and utilized to evaluate the amount of movement (measured total movements and intensity) for each dog for the purpose of evaluating equal work between treatments and also to evaluate the individual work intensity while completing the daily retrieves. Each dog wore the Actical monitor for each long run and wore the Actical monitor for the final 15 mile run. The Actical monitor data was downloaded to a computer for evaluation. Statistical Methods: GraphPad Prism 6.0 was used to compare means between groups for run time, food intake, body weight, and changes in blood chemistry using an unpaired t-test. Results were considered significant if a p-value of 0.05 was obtained. JMP 10.0.2 was used to create a mixed model for long runs, short runs, body composition, and blood chemistry.

[2] = system: creatine kinase; assay: Serum creatine kinase, Example 2 part one; conditions: for Creatine Kinase: serum
Description: (§1) Twenty-four hours after test dogs ran the last 15 mile endurance run, serum samples were taken to evaluate biomarkers for muscle damage and antioxidant status. Blood samples were taken 1) just prior to the beginning of the study; 2) 1 day prior to running the final 15 mile run on the 14th week; 3) 1 hour immediately following the 15 mile run; and 4) 24 hours following the final 15 mile run. After a blood sample was drawn, it was allowed to clot for 30 minutes at 25° C. before being centrifuged for 15 minutes at 2000 g at 4° C. Serum was aliquoted into 0.65 mL microcentrifuge tubes and stored at −80° C. until being assayed at the end of the study for creatine kinase, canine myoglobin, thiobarbituric acid reactive substances (TBARS), and total antioxidant capacity (TAC) using the commercially available kits described in Example 1.

[3] = system: total antioxidant capacity (TAC); assay: Serum total antioxidant capacity (TAC), Example 2 part one; conditions: for TAC: serum
Description: as §1

[4] = Whole Groups, Post-Run 1 Hr, Post-Run 1 Hr
[5] = Whole Groups, Post-Run 24 Hr, Post-Run 24 Hr

C[N+](C)(C)C[C@H](O)CC(=O)[O-] [L-carnitine]
Activity long runs, APM/lb Mean ([1]; Week 1, both sexes): 1535 Movements/Mile/LB BW
Activity long runs, APM/lb Mean ([1]; Week 1, females): 1825 Movements/Mile/LB BW
Activity long runs, APM/lb Mean ([1]; Week 1, males): 1298 Movements/Mile/LB BW
Activity long runs, APM/lb Mean ([1]; Week 2, both sexes): 1385 Movements/Mile/LB BW
Activity long runs, APM/lb Mean ([1]; Week 2, females): 1616 Movements/Mile/LB BW
Activity long runs, APM/lb Mean ([1]; Week 2, males): 1177 Movements/Mile/LB BW
Activity long runs, APM/lb Mean ([1]; Week 3, both sexes): 1298 Movements/Mile/LB BW
Activity long runs, APM/lb Mean ([1]; Week 3, females): 1559 Movements/Mile/LB BW
Activity long runs, APM/lb Mean ([1]; Week 3, males): 1065 Movements/Mile/LB BW
Activity long runs, APM/lb Mean ([1]; Week 4, both sexes): 1334 Movements/Mile/LB BW
Activity long runs, APM/lb Mean ([1]; Week 4, females): 1522 Movements/Mile/LB BW
Activity long runs, APM/lb Mean ([1]; Week 4, males): 1093 Movements/Mile/LB BW
Activity long runs, APM/lb Mean ([1]; Week 5, both sexes): 1288 Movements/Mile/LB BW
Activity long runs, APM/lb Mean ([1]; Week 5, females): 1582 Movements/Mile/LB BW
Activity long runs, APM/lb Mean ([1]; Week 5, males): 1048 Movements/Mile/LB BW
Activity long runs, APM/lb Mean ([1]; Week 6, both sexes): 1278 Movements/Mile/LB BW
Activity long runs, APM/lb Mean ([1]; Week 6, females): 1472 Movements/Mile/LB BW
Activity long runs, APM/lb Mean ([1]; Week 6, males): 1105 Movements/Mile/LB BW
Activity long runs, APM/lb Mean ([1]; Week 7, both sexes): 1264 Movements/Mile/LB BW
Activity long runs, APM/lb Mean ([1]; Week 7, females): 1391 Movements/Mile/LB BW
Activity long runs, APM/lb Mean ([1]; Week 7, males): 1162 Movements/Mile/LB BW
Activity long runs, APM/lb Mean ([1]; Week 8, both sexes): 1241 Movements/Mile/LB BW
Activity long runs, APM/lb Mean ([1]; Week 8, females): 1437 Movements/Mile/LB BW
Activity long runs, APM/lb Mean ([1]; Week 8, males): 1081 Movements/Mile/LB BW
Activity long runs, APM/lb Mean ([1]; Week 9, both sexes): 1194 Movements/Mile/LB BW
Activity long runs, APM/lb Mean ([1]; Week 9, females): 1355 Movements/Mile/LB BW
Activity long runs, APM/lb Mean ([1]; Week 9, males): 1062 Movements/Mile/LB BW
Activity long runs, APM/lb Mean ([1]; Week 10, both sexes): 1192 Movements/Mile/LB BW
Activity long runs, APM/lb Mean ([1]; Week 10, females): 1385 Movements/Mile/LB BW
Activity long runs, APM/lb Mean ([1]; Week 10, males): 1018 Movements/Mile/LB BW
Activity long runs, APM/lb Mean ([1]; Week 11, both sexes): 1364 Movements/Mile/LB BW
Activity long runs, APM/lb Mean ([1]; Week 11, females): 1655 Movements/Mile/LB BW
Activity long runs, APM/lb Mean ([1]; Week 11, males): 1126 Movements/Mile/LB BW
Activity long runs, APM/lb Mean ([1]; Week 13, both sexes): 1116 Movements/Mile/LB BW
Activity long runs, APM/lb Mean ([1]; Week 13, females): 1251 Movements/Mile/LB BW
Activity long runs, APM/lb Mean ([1]; Week 13, males): 1006 Movements/Mile/LB BW
Activity long runs, Least Sq Mean ([1]; both sexes): 1317 Movements/Mile/LB BW and 1317.0647 Movements/Mile/LB BW
Activity long runs, Least Sq Mean ([1]; females): 1509 Movements/Mile/LB BW and 1509.2493 Movements/Mile/LB BW
Activity long runs, Least Sq Mean ([1]; males): 1124 Movements/Mile/LB BW and 1124.8801 Movements/Mile/LB BW
CK increase from pre-run values ([2]; Ex.2 part one, 250 mg/d, 1 hour post-endurance run): 10.81 units
CK values, serum ([2]; Ex.2 part one, 250 mg/d, 1 hour post-run): 26.39 mU/mL
CK values, serum ([2]; Ex.2 part one, 250 mg/d, 24 hour post-run): 23.06 mU/mL
Creatine Kinase ([2]; FEMALES, Baseline): 26.44 ± 3.08 mU · mL
Creatine Kinase ([2]; FEMALES, Post-Run 1 Hr): 26.8 ± 1.36 mU · mL
Creatine Kinase ([2]; FEMALES, Post-Run 24 Hr): 21.71 ± 0.79 mU · mL
Creatine Kinase ([2]; FEMALES, Pre-Run): 17.14 ± 1.96 mU · mL
Creatine Kinase ([2]; MALES, Baseline): 20.81 ± 2.98 mU/mL
Creatine Kinase ([2]; MALES, Post-Run 1 Hr): 25.98 ± 1.39 mU/mL
Creatine Kinase ([2]; MALES, Post-Run 24 Hr): 24.4 ± 1.53 mU/mL
Creatine Kinase ([2]; MALES, Pre-Run): 14.02 ± 1.98 mU/mL
Creatine Kinase ([2]; Whole Groups, Baseline): 23.63 ± 2.17 mU/mL
Creatine Kinase [2, 4]: 26.39 ± 0.96 mU/mL
Creatine Kinase [2, 5]: 23.06 ± 0.88 mU/mL
Creatine Kinase ([2]; Whole Groups, Pre-Run): 15.58 ± 1.4 mU/mL
TAC levels, serum ([3]; Ex.2 part one, 250 mg/d, post-run 24-hr): 0.16 mM Trolox equiv
TAC ([3]; FEMALES, Baseline): 0.15 ± 0.01 mM Trolox Equiv
TAC ([3]; FEMALES, Post-Run 1 Hr): 0.15 ± 0.01 mM Trolox Equiv
TAC ([3]; FEMALES, Post-Run 24 Hr): 0.16 ± 0.01 mM Trolox Equiv
TAC ([3]; FEMALES, Pre-Run): 0.13 ± 0.01 mM Trolox Equiv
TAC ([3]; MALES, Baseline): 0.18 ± 0.01 mM Trolox Equiv
TAC ([3]; MALES, Post-Run 1 Hr): 0.16 ± 0.01 mM Trolox Equiv
TAC ([3]; MALES, Post-Run 24 Hr): 0.16 ± 0.01 mM Trolox Equiv
TAC ([3]; MALES, Pre-Run): 0.15 ± 0.01 mM Trolox Equiv
TAC ([3]; Whole Groups, Baseline): 0.17 ± 0.01 mM Trolox Equiv
TAC [3, 4]: 0.15 ± 0.01 mM Trolox Equiv
TAC [3, 5]: 0.16 ± 0.01 mM Trolox Equiv
TAC ([3]; Whole Groups, Pre-Run): 0.14 ± 0.01 mM Trolox Equiv
